US20150152122A1, “TYROSINASE INHIBITORS” (Avon Products, Inc., priority 2013, published 2015)

Experiments:
human skin explants = assay: Melanin production in human skin explants; assay type: cell-based; conditions: human skin explant
Experimental: The effects of test compound AV7909 on melanin levels in human skin explants were determined relative to a DMSO control and Kojic Acid benchmark.

Mushroom tyrosinase = Mushroom tyrosinase assay; assay type: biochemical; conditions: percent change vs DMSO vehicle, L-Tyrosine substrate, 25° C., 30 min
Experimental: Mushroom tyrosinase and L-Tyrosine were obtained from Sigma-Aldrich, Inc. (St. Louis, Mo.). The enzyme activity was measured in buffer containing 100 mM phosphate buffer pH 6.8, 5% absolute ethanol, 2 micrograms/milliiliter mushroom tyrosinase, and 0.2 mg/ml L-Tyrosine. The reaction (conversion of L-Tyrosine to DOPAchrome) was conducted in triplicates at 25° C. for 30 min, and absorbance was then measured at 492 nm. Kojic Acid was used as a positive control inhibitor in these assays. Percent change in tyrosinase activity relative to vehicle control was calculated.

B16 mouse melanoma cells = assay: Inhibition of melanin production in B16 melanoma cell assay; assay type: cell-based; conditions: 4 days, normalized to cell viability (MTT), alpha MSH 2 ng/ml
Experimental: The effects of various test compounds on melanin levels were determined by performing assays using B16 melanoma cells. These cells are known to constitutively produce melanin and are a commonly utilized and accepted model system for monitoring the inhibition of melanin synthesis. The B16 mouse melanoma cells were seeded (ATCC, cat. #: CRL-6475) into 96-well tissue culture-treated plates (BD Falcon) and treated with test actives or controls in phenol red free DMEM (Mediatech; cat. #: 17-205-CV) with 2 nanogram/ml of alpha MSH (Fluka; cat #: 63605). The cells were examined for their ability to modulate pigment formation. […] Tests were performed in 6 replicates each. Following the treatment period (4 days), the level of pigment produced or melanin synthesized was quantified by reading the absorbance at 540 nm using a standard microplate reader (Tecan Group Ltd.).
After quantifying the amount of melanin, cell viability was determined using the MTT conversion method. The MTT conversion method measures the reduction of the MTT dye from a yellow colored, water-soluble, tetrazolium salt to a bluish-purple colored insoluble formazan precipitate by NAD(P)H-dependent microsomal dehydrogenase enzymes, which only function in viable cells. The intensity of the blue color is indicative of cell viability. After quantifying the amount of melanin pigment produced, the cells were exposed to MTT dye solution (1 mg/ml) for two to three hours. Formazan material was solubilized with reagent alcohol (95% ethanol: 5% isopropanol) and shaken on an orbital shaker for 15-30 minutes. MTT dye uptake and conversion by viable cells were determined by measuring the extracted formazan at 570 nm using a microplate reader. Total pigmentation was calculated, normalized to cell viability values and expressed as the average percent change in melanin activity relative to control of the six experiments performed.

[1] = test system: MELANODERM (MEL-300-B) human skin model; assay: 3D skin equivalent tissue pigmentation assay (MELANODERM); assay type: cell-based; conditions: topical 10 μl, Day 11
Experimental: The effect of the tyrosinase inhibitors on melanin levels was investigated using a MELANODERM™ (MEL-300-B, MatTek Corp., Ashland, Mass.) human skin model. MELANODERM™ is a viable reconstituted three-dimensional human skin equivalent containing melanocytes derived from African-American donors. Tissues were maintained in culture medium EPI-100-NMM-113 at 37° C. as recommended by the manufacturer.
The compounds were dissolved in either 69% propylene glycol+30% EtOH+1% DMSO or 70% propylene glycol+30% EtOH desired concentration (w/v). 10 μl of the solution was applied topically to the MELANODERMTM tissue while culture medium was added on days 1, 2, 4, 7, and 9. Control tissues were treated with the 10 μl of corresponding vehicle only. On Day 11, tissues were collected and homogenized in a buffer containing 1% SDS, 50 mM EDTA, and 10 mM Tris, pH 6.8. To each homogenate, protease K (5 mg/ml) was added and incubated overnight at 45° C. Additional protease K was added and incubated for 4 hours at 45° C., followed by the addition of 0.5M sodium carbonate and 30% H2O2 and incubation at 80° C. for 30 minutes. The samples were cooled down to room temperature, and extracted with chloroform/methanol (2:1). After centrifugation at 10,000 g for 10 minutes, absorbance of the top phase was measured at 450 nm. Percent change in melanin levels in treated tissue was calculated relative to control. The average percent change in melanin relative to control of the three tissues is reported in the Table 5 in accordance with the scale: 0: <7% decrease in pigmentation level; +: between 8-14% decrease; ++: between 15-20% decrease; +++: between 21-30% decrease; ++++: >31% decrease; C=cytotoxic

[2] = test system: Human Epidermal Melanocytes, neonatal, darkly pigmented donor (HEMn-DP); assay: Human Primary Melanocyte Pigmentation Assay (HEMn-DP); assay type: cell-based; conditions: 5 days, normalized to cell viability
Experimental: The effects of various test compounds on melanin productions were determined by performing assays using Human Epidermal Melanocytes, neonatal, darkly pigmented donor (HEMn-DP). The HEMn-DP cells were seeded (Invitrogen; cat. #: C-202-5C) into 6-well tissue culture-treated plates (BD Falcon) and treated with test actives or controls in Medium 254 (Invitrogen; cat. #: M-254-500) supplemented with 1% HMSG (Invitrogen; cat. #: S-002-5) and 1% PS. The cells were examined for their ability to modulate pigment formation. […] Tests were performed in triplicates each. Following the treatment period (5 days), supernatants were aspirated. The melanin was extracted with 0.5 ml of 2N NaOH for 30 minutes at 80° C. The level of melanin synthesized within the cells was quantified by reading the absorbance at 405 nm using a standard microplate reader (Tecan Group Ltd.).
The cell viability was determined using the MTT conversion method. The MTT conversion method measures the reduction of the MTT dye from a yellow colored, water-soluble, tetrazolium salt to a bluish-purple colored insoluble formazan precipitate by NAD(P)H-dependent microsomal dehydrogenase enzymes, which only function in viable cells. […] MTT dye uptake and conversion by viable cells were determined by measuring the extracted formazan at 570 nm using a microplate reader. Total pigmentation was calculated and normalized to cell viability values. […]

Tyrosinase Activity relative to Vehicle Control (Mushroom tyrosinase; concentration 0.0010%) | Tyrosinase Activity relative to Vehicle Control (Mushroom tyrosinase; concentration 0.0100%) | SMILES | Pigment Production (percent change in melanin compared to DMSO vehicle control) (human skin explants; concentration 0.1%) | B16 Assay Percent Change Melanin Compared to Vehicle (B16 mouse melanoma cells; concentration 0.0001%) | B16 Assay Percent Change Melanin Compared to Vehicle (B16 mouse melanoma cells; concentration 0.0010%) | 3D Tissue Pigmentation Assay (change in melanin compared to vehicle control) ([1]; concentration 0.1% (w/v)) | 3D Tissue Pigmentation Assay (change in melanin compared to vehicle control) ([1]; concentration 0.25% (w/v)) | 3D Tissue Pigmentation Assay (change in melanin compared to vehicle control) ([1]; concentration 0.5% (w/v)) | Pigment Production (percent change in melanin compared to DMSO vehicle control) (human skin explants; concentration 0.5%) | HUMAN PRIMARY MELANOCYTE PIGMENTATION ASSAY (change in melanin compared to DMSO vehicle control) ([2]; concentration 0.0001%) | HUMAN PRIMARY MELANOCYTE PIGMENTATION ASSAY (change in melanin compared to DMSO vehicle control) ([2]; concentration 0.001%) | 3D Tissue Pigmentation Assay (change in melanin compared to vehicle control) ([1]; concentration 0.05% (w/v))
−82% | −70% | Cc1cc(C)n(-c2ccc(=S)[nH]n2)n1 [AV7909] | −17% | −17% | −79% | ++ (between 15-20% decrease) | +++ (between 21-30% decrease) | ++++ (>31% decrease) | −28% | – | – | –
−74% | −70% | Cn1c2ccccc2n2c(=S)[nH]nc12 [AV7533] | – | −31% | −63% | + (between 8-14% decrease) | ++ (between 15-20% decrease) | – | – | 0 (<10% decrease in pigmentation level) | ++ (between 31-50% decrease) | + (between 8-14% decrease)

Continued, compound first:

SMILES | Tyrosinase Activity relative to Vehicle Control (Mushroom tyrosinase; concentration 0.0010%) | Tyrosinase Activity relative to Vehicle Control (Mushroom tyrosinase; concentration 0.0100%) | Pigment Production (percent change in melanin compared to DMSO vehicle control) (human skin explants; concentration 0.1%) | B16 Assay Percent Change Melanin Compared to Vehicle (B16 mouse melanoma cells; concentration 0.0001%) | B16 Assay Percent Change Melanin Compared to Vehicle (B16 mouse melanoma cells; concentration 0.0010%) | 3D Tissue Pigmentation Assay (change in melanin compared to vehicle control) ([1]; concentration 0.1% (w/v)) | 3D Tissue Pigmentation Assay (change in melanin compared to vehicle control) ([1]; concentration 0.25% (w/v)) | 3D Tissue Pigmentation Assay (change in melanin compared to vehicle control) ([1]; concentration 0.5% (w/v)) | Pigment Production (percent change in melanin compared to DMSO vehicle control) (human skin explants; concentration 0.5%) | HUMAN PRIMARY MELANOCYTE PIGMENTATION ASSAY (change in melanin compared to DMSO vehicle control) ([2]; concentration 0.0001%) | HUMAN PRIMARY MELANOCYTE PIGMENTATION ASSAY (change in melanin compared to DMSO vehicle control) ([2]; concentration 0.001%) | 3D Tissue Pigmentation Assay (change in melanin compared to vehicle control) ([1]; concentration 0.05% (w/v))
O=c1cc(CO)occ1O [Kojic Acid, Kojic acid (5-hydroxy-4-pyran-4-one-2-methyl), reference compound] | – | – | −23% | – | – | – | – | – | – | – | – | –
S=c1[nH]nc(-c2ccc3c(c2)OCO3)o1 [AV5828] | −48% | −77% | – | −13% | −30% | – | – | – | – | – | – | –
Sc1nnc2sc3ccccc3n12 [AV0442] | −73% | −49% | – | – | −19% | – | – | – | – | – | – | –
S=c1nc(-c2cccs2)cn[nH]1 [AV4926] | −75% | −53% | – | – | −49% | – | – | – | – | – | – | –
CC(C)c1nc(=S)[nH]n1-c1ccccc1 [AV1973] | – | −81% | – | −17% | −60% | – | – | – | – | – | – | –
